Data from ChEMBL document CHEMBL1201862, “PubChem BioAssay data set” (2004).
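Step 1: Grow cells in 96-well plates. Step 2: Expose to compound for 48 hours at 5 concentrations. Step 3: Interpolate endpoints linearly; if unreached, use highest concentration. GI50 is the concentration that inhibits growth by half.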 Active and inactive are the calls of the source. Rule as the data show it: active = GI50 up to about 1.1 µM and inactive = higher.

Experiments:
Assay in all cases: NCI anticancer screen, dose series, 48 h
KM-20L2 = test system: KM-20L2
DMS-114 = test system: DMS-114
LXFL 529 = test system: LXFL 529
SNB-78 = test system: SNB-78
RXF 631 = test system: RXF 631
DLD-1 = test system: DLD-1
XF498 = test system: XF498
DMS-273 = test system: DMS-273
HOP-18 = test system: HOP-18

Row | SMILES | GI50 (KM-20L2) | GI50 (DMS-114) | GI50 (LXFL 529) | GI50 (SNB-78) | GI50 (RXF 631) | GI50 (DLD-1) | GI50 (XF498) | GI50 (DMS-273) | GI50 (HOP-18)
1 | CC1CC(c2ccc(Cl)cc2)=Nc2ccccc2S1 (stereo unspecified) | > 100 µM (inactive) | > 100 µM (inactive) | > 100 µM (inactive) | > 100 µM (inactive) | > 100 µM (inactive) | > 100 µM (inactive) | – | – | –
2 | CSc1ccc(Cc2cc(C(C)(C)C)cc(C(C)(C)C)c2O)cc1 | 14.6 µM (inactive) | 13 µM (inactive) | 13.9 µM (inactive) | 14.9 µM (inactive) | 14.9 µM (inactive) | 13.8 µM (inactive) | 17.8 µM (inactive) | 13.7 µM (inactive) | 19.6 µM (inactive)
3 | COC(=O)/C(=N\Nc1nnc(C)n1N)C(C#N)c1ccc(Cl)cc1 (stereo unspecified) | > 100 µM (inactive) | 58.1 µM (inactive) | > 100 µM (inactive) | > 100 µM (inactive) | – | > 100 µM (inactive) | > 100 µM (inactive) | > 100 µM (inactive) | > 100 µM (inactive)
4 | NC(=S)N/N=C(\C(=O)Nc1ccc(Cl)c(Cl)c1)C1=NN(c2ccccc2)C(c2cccc([N+](=O)[O-])c2)CC1=O (stereo unspecified) | 20.7 µM (inactive) | 20.7 µM (inactive) | 19.1 µM (inactive) | 62.4 µM (inactive) | 12 µM (inactive) | 19.4 µM (inactive) | 34.3 µM (inactive) | 11.7 µM (inactive) | 29.1 µM (inactive)
5 | N#CC(C(=O)/C(=N\Nc1nc(S)nn1N)C(C#N)c1ccc(Cl)cc1)c1ccc(Cl)cc1 (stereo unspecified) | > 100 µM (inactive) | > 100 µM (inactive) | > 100 µM (inactive) | > 100 µM (inactive) | – | > 100 µM (inactive) | > 100 µM (inactive) | > 100 µM (inactive) | > 100 µM (inactive)
6 | Cc1ccc(S(=O)(=O)N/N=C(\CCN2CCCC2)CC(c2ccccc2)c2c(O)c3ccccc3oc2=O)cc1 (stereo unspecified) | > 100 µM (inactive) | – | > 100 µM (inactive) | > 100 µM (inactive) | > 100 µM (inactive) | > 100 µM (inactive) | > 100 µM (inactive) | – | > 100 µM (inactive)
7 | N#Cc1ccc(C(C2C(=O)NC(=O)NC2=O)C2C(=O)NC(=O)NC2=O)cc1 | > 100 µM (inactive) | – | > 100 µM (inactive) | – | – | – | – | > 100 µM (inactive) | –
8 | CC(C)(C)C1=Cc2cc3cc(C(C)(C)C)[nH]c(=O)c3cc2S(=O)(=O)N1 | – | 21.4 µM (inactive) | 25.2 µM (inactive) | 42.1 µM (inactive) | – | 31.7 µM (inactive) | – | – | –
9 | CCC/C(=N/NC(=O)C(N)=O)C(CC)C(=O)CCC(=O)N(Cc1ccccc1)Cc1ccccc1 (stereo unspecified) | > 100 µM (inactive) | > 100 µM (inactive) | > 100 µM (inactive) | > 100 µM (inactive) | > 100 µM (inactive) | – | > 100 µM (inactive) | > 100 µM (inactive) | > 100 µM (inactive)
10 | O=C(N/N=C/c1cc(Br)ccc1O)N/N=C/c1cc(Br)ccc1O | 4.85 µM (inactive) | 1.18 µM (inactive) | – | – | 14.2 µM (inactive) | 2.9 µM (inactive) | 2.19 µM (inactive) | 0.791 µM (active) | –
11 | CCN1CCN(c2ccc(Nc3ccnc4ccc5nn(C)nc5c34)cc2)CC1 | 8.36 µM (inactive) | 10.1 µM (inactive) | 10.7 µM (inactive) | 14.2 µM (inactive) | 10 µM (inactive) | 11.6 µM (inactive) | 13.9 µM (inactive) | – | –
12 | O=C(O)CCc1nn2c(nc1=O)sc1ccc3ccccc3c12 | > 100 µM (inactive) | > 100 µM (inactive) | > 100 µM (inactive) | > 100 µM (inactive) | > 100 µM (inactive) | > 100 µM (inactive) | > 100 µM (inactive) | > 100 µM (inactive) | > 100 µM (inactive)
13 | Cc1cccc2c(=O)cc(-c3ccccc3)[nH]c12 | 4.07 µM (inactive) | 3.95 µM (inactive) | 4.61 µM (inactive) | – | – | 4.31 µM (inactive) | 3.01 µM (inactive) | 3.57 µM (inactive) | –
14 | COc1ccc2c3c([nH]c2c1[N+](=O)[O-])C(C)=NCC3 | 69.3 µM (inactive) | > 100 µM (inactive) | > 100 µM (inactive) | > 100 µM (inactive) | > 100 µM (inactive) | 99.1 µM (inactive) | – | 41.7 µM (inactive) | –
15 | COc1ccc(C(C#N)Cc2cc(OC)c(OC)c(OC)c2)cc1 (stereo unspecified) | – | 17.4 µM (inactive) | 41.8 µM (inactive) | 39.8 µM (inactive) | 35.6 µM (inactive) | 45.7 µM (inactive) | – | 7.16 µM (inactive) | > 100 µM (inactive)
16 | O=C1C2=C(SCCS2)C(=O)c2ccccc21 | 1.94 µM (inactive) | 0.871 µM (active) | 1.64 µM (inactive) | – | 1.82 µM (inactive) | 1.96 µM (inactive) | 1.64 µM (inactive) | 1.81 µM (inactive) | –
17 | Cc1cc2c(=O)cc(-c3ccncc3)oc2c(C(N)=O)c1C | > 100 µM (inactive) | – | > 100 µM (inactive) | > 100 µM (inactive) | – | – | > 100 µM (inactive) | > 100 µM (inactive) | > 100 µM (inactive)
18 | CCOC(=O)NC(=O)c1cn(C2OC(COC(=O)CCCCCCCCC(=O)OCC3OC(n4cc(C(=O)NC(=O)OCC)c(=O)[nH]c4=O)C(O)C3O)C(O)C2O)c(=O)[nH]c1=O (stereo unspecified) | > 100 µM (inactive) | > 100 µM (inactive) | > 100 µM (inactive) | > 100 µM (inactive) | > 100 µM (inactive) | > 100 µM (inactive) | > 100 µM (inactive) | > 100 µM (inactive) | > 100 µM (inactive)
19 | COC1OC(OC)C2C(c3c(C)cc(C)cc3C)=NOC12 (stereo unspecified) | > 100 µM (inactive) | – | > 100 µM (inactive) | > 100 µM (inactive) | – | > 100 µM (inactive) | > 100 µM (inactive) | > 100 µM (inactive) | > 100 µM (inactive)
20 | CN1OC(CO)CC12C1CC3CC(C1)CC2C3 (stereo unspecified) | > 100 µM (inactive) | > 100 µM (inactive) | > 100 µM (inactive) | – | – | > 100 µM (inactive) | – | > 100 µM (inactive) | > 100 µM (inactive)
21 | C=CCN1C(=O)C/C(=C2/CCC(=O)N2CC=C)C1=O | > 100 µM (inactive) | > 100 µM (inactive) | > 100 µM (inactive) | > 100 µM (inactive) | > 100 µM (inactive) | > 100 µM (inactive) | – | > 100 µM (inactive) | > 100 µM (inactive)
22 | CCOC(=O)CCC(NC(=O)c1ccc(NC(OC)c2nc3cc(C(F)(F)F)ccc3nc2-c2ccccc2)cc1)C(=O)OCC (stereo unspecified) | 13.6 µM (inactive) | 12.7 µM (inactive) | 7.6 µM (inactive) | 19.1 µM (inactive) | 13.7 µM (inactive) | 9.4 µM (inactive) | – | 7.36 µM (inactive) | 18.5 µM (inactive)
23 | O=C(/C=C/c1ccc(-c2ccccc2)cc1)c1ccccc1 | – | 14.6 µM (inactive) | 17.6 µM (inactive) | 29 µM (inactive) | 25.2 µM (inactive) | 26.3 µM (inactive) | 25.2 µM (inactive) | – | > 100 µM (inactive)
24 | CCCCCCCCCCCC(=O)OCC1OC(n2cc(F)c(=O)[nH]c2=O)C(NC(=O)OCc2ccccc2)C(O)C1O (stereo unspecified) | 21.4 µM (inactive) | – | 18.6 µM (inactive) | 28.9 µM (inactive) | – | – | – | 19 µM (inactive) | –
25 | O=C1C(=O)N(c2cccc(C(F)(F)F)c2)C(=O)C(=O)C1c1nc2ccccc2s1 | > 100 µM (inactive) | 45.8 µM (inactive) | 52 µM (inactive) | > 100 µM (inactive) | 88.1 µM (inactive) | 74.3 µM (inactive) | > 100 µM (inactive) | > 100 µM (inactive) | 63.7 µM (inactive)
26 | COc1ccc(/C=N\N2C(=O)Cc3ccccc32)cc1 | > 100 µM (inactive) | – | – | 91.2 µM (inactive) | – | > 100 µM (inactive) | 27.4 µM (inactive) | > 100 µM (inactive) | > 100 µM (inactive)
